Test results: patent publication US20130231365A1, “Treatment of Inflammation with Certain Alpha-7 Nicotinic Acid Receptor Agonists in Combination with Acetylcholinesterase Inhibitors” (priority 2010, published 2013)

Target: T1, human alpha7 receptor (Homo sapiens, UniProt P36544)
T1 construct: expressed in transfected cells; host or cells: Xenopus laevis oocytes (cDNA injected into the germinal vesicle)
Test: Acetylcholine-evoked currents in Xenopus oocytes with co-application of the alpha7 agonist
Format: cell-based
Description: FIG. 1 depicts a protocol for administering acetylcholine and (R)-7-chloro-N-(quinuclidin-3-yl)benzo[b]thiophene-2-carboxamide hydrochloride monohydrate to Xenopus oocytes.
FIG. 2 depicts the results of an assay showing the action of acetylcholine and (R)-7-chloro-N-(quinuclidin-3-yl)benzo[b]thiophene-2-carboxamide hydrochloride monohydrate.
In the study described below currents were measures in Xenopus oocytes. Acetylcholine at 40 micromolar was administered prior to administration of (R)-7-chloro-N-(quinuclidin-3-yl)benzo[b]thiophene-2-carboxamide is (R)-7-chloro-N-(quinuclidin-3-yl)benzo[b]thiophene-2-carboxamide hydrochloride monohydrate at 0.3 nM using the protocol depicted in FIG. 1. Currents were normalized to unity versus the average acetylcholine-evoked current measured during the stabilization period (4 time points).
The EC50 for an alpha7 receptor agonist can be measured using Xenopus oocytes as described previously (Boess et al. 2007 J Pharm Exp Therap 321:716; Methfessel et al., 1986 Pflueg Arch Eur J Physiol 407:577-588; Schnizler et at 2003 Receptors Channels 9:41-48). […] Solutions of test compounds in normal frog Ringer's solution are superfused through the recording chamber for 20 s while the voltage-clamp current is recorded. […] By testing with various concentration of the alpha7 receptor agonist the EC50 for agonism can be determined.

T1 sequence (P36544 23-502): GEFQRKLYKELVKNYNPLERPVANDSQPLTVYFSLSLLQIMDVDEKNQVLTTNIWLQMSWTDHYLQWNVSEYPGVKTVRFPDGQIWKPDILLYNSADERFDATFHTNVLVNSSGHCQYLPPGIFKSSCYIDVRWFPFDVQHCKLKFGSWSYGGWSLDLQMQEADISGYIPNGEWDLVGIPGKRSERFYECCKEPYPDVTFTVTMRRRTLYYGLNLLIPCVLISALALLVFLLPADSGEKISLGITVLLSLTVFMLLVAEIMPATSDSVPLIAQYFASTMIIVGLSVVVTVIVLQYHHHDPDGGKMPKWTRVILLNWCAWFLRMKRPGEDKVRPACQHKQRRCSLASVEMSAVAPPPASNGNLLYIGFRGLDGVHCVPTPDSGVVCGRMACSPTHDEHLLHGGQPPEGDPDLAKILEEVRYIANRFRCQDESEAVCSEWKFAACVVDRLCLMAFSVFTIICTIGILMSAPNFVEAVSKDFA

## Cl.O=C(N[C@H]1CN2CCC1CC2)c1cc2cccc(Cl)c2s1 [(R)-7-chloro-N-(quinuclidin-3-yl)benzo[b]thiophene-2-carboxamide hydrochloride monohydrate]
Acetylcholine 40 micromolar given before compound at 0.3 nM, after 8 and 16 minutes incubation, average of 3 cells, FIG. 2
  acetylcholine-evoked current, normalized to unity versus the average current of the stabilization period: large current increase
Very low concentrations of compound, well below the expected EC50
  effect when administered with acetylcholine: synergistic effect
